#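 Five concentrations, 48 hours, 96-well plates. TGI: concentration producing complete growth inhibition.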
# Tested on: A549 NSCLC
# Assay: NCI tumour cell line growth inhibition, 48 h
row,Compound,TGI [µM]
1,CC1CN=C(N(C(=O)Nc2ccc(Cl)c(Cl)c2)c2ccccc2)S1 (stereo not given),> 100
2,CNCCCn1c2ccccc2c2c3c(c(-c4ccsc4)cc21)C(=O)NC3=O,2.76
3,C=C(C)C1CCC2(C)CC1c1c(c(C)cc3c1[nH]c1ccccc13)O2 (stereo not given),> 25
4,CC(C)(C)OC/C=C(/CO)[C@@H]1C=C[C@H](O)C1,> 100
5,CN(CCN(C)C(=O)CCn1cc(F)c(=O)[nH]c1=O)C(=O)CCn1cc(F)c(=O)[nH]c1=O,> 100
6,CCOC1c2cc(C(C)C)c(O)c(O)c2[C@@]23CCCC(C)(C)C2C1OC3=O (stereo not given in full),> 100
7,C=CN1C(=O)[C@H](Oc2ccccc2)[C@@H]1c1ccccc1,85
8,CS(=O)(=O)c1ccc(-c2cc(-c3ccc(S(C)(=O)=O)cc3)[n+](-c3cc(-c4ccccc4)c([O-])c(-c4ccccc4)c3)c(-c3ccc(S(C)(=O)=O)cc3)c2)cc1,> 100
9,COc1ccc(C(C#N)NNC(=O)Cc2ccccc2)cc1OC (stereo not given),> 100
10,O=C(CC(C(=O)c1ccsc1)c1ccccc1)c1ccccc1 (stereo not given),80
11,CC(C)=CC1CC(=[N+]=[N-])C(=O)C1(C)C (stereo not given),> 100
12,COc1cccc(C2CC23C(=O)NC(=O)NC3=O)c1 (stereo not given),> 100
13,O=C(CSc1c2ccccc2nc2ccccc12)Nc1ccccc1-c1ccccc1NC(=O)CSc1c2ccccc2nc2ccccc12,> 100
14,CC1(C)OC[C@@H]([C@H](O)C2C=CC(=O)S2)O1 (stereo not given in full),> 100
15,CCOC(=O)Cc1ccc(Nc2nc3ccccc3nc2C(=O)OCC)cc1,> 100
16,O=S(=O)(c1ccccc1)N1N=C2c3ccccc3CCC[C@H]2C1c1ccccc1 (stereo not given in full),> 100
17,CCOC(=O)/C(=C/c1ccc(N(C)C)cc1)N(CC)CC,> 100
18,CC1CN=C(N(C(=O)Nc2ccccc2)c2ccc(Cl)c(Cl)c2)S1 (stereo not given),> 100
19,CC(=O)O[C@H]1CC[C@@]2(C)C(=CC[C@H]3[C@@H]4C/C(=C\c5ccc(N(C)C)cc5)[C@H](OC(C)=O)[C@@]4(C)CC[C@@H]32)C1,31.7
20,CC(C)(C)[Si](C)(C)Oc1ccc(C2CNC(=O)C23CCC(=O)N3Cc2ccccc2)cc1 (stereo not given),33.2

# Tested on: EKVX NSCLC
# Assay: NCI tumour cell line growth inhibition, 48 h
row,Compound,TGI [µM]
1,COC(=O)[C@@]1(C)/C(=N/NS(=O)(=O)c2ccc(C)cc2)CCC[C@@H]1C,> 100
2,COc1ccc(OC)c(/C=C(/C#N)c2ccccc2)c1,> 100
3,COC(=O)C(C(=O)Cc1ccccc1[N+](=O)[O-])C(=O)OC,> 100
4,CCCCC/C=C1\CCC(CN(C)C)C1=O (stereo not given),> 56.3
5,O=C(Cn1c(-c2ccccc2)cc2ccccc21)N1CCCC1,> 100
6,Cc1ccc(Cl)c2c(=O)c3ccc(N)cc3sc12,52.8
7,C=CCN1CCC(O)(c2cc(C(=O)OCC)[nH]c2-c2cc(C)no2)C1 (stereo not given),> 100
8,CC1CN=C(N(C(=O)Nc2ccc(Cl)c(Cl)c2)c2ccccc2)S1 (stereo not given),> 100
9,CNCCCn1c2ccccc2c2c3c(c(-c4ccsc4)cc21)C(=O)NC3=O,3.75
10,CC(C)(C)OC/C=C(/CO)[C@@H]1C=C[C@H](O)C1,> 100
11,CN(CCN(C)C(=O)CCn1cc(F)c(=O)[nH]c1=O)C(=O)CCn1cc(F)c(=O)[nH]c1=O,> 100
12,CCOC1c2cc(C(C)C)c(O)c(O)c2[C@@]23CCCC(C)(C)C2C1OC3=O (stereo not given in full),> 100
13,C=CN1C(=O)[C@H](Oc2ccccc2)[C@@H]1c1ccccc1,> 100
14,CS(=O)(=O)c1ccc(-c2cc(-c3ccc(S(C)(=O)=O)cc3)[n+](-c3cc(-c4ccccc4)c([O-])c(-c4ccccc4)c3)c(-c3ccc(S(C)(=O)=O)cc3)c2)cc1,> 100
15,Nc1ccn([C@H]2CO[C@@H](CO)[C@@H]2O)c(=O)n1,> 100
16,O=C(CC(C(=O)c1ccsc1)c1ccccc1)c1ccccc1 (stereo not given),> 100
17,CC(C)=CC1CC(=[N+]=[N-])C(=O)C1(C)C (stereo not given),> 100
18,COc1cccc(C2CC23C(=O)NC(=O)NC3=O)c1 (stereo not given),> 100
19,O=C(CSc1c2ccccc2nc2ccccc12)Nc1ccccc1-c1ccccc1NC(=O)CSc1c2ccccc2nc2ccccc12,> 76.6
20,CC1(C)OC[C@@H]([C@H](O)C2C=CC(=O)S2)O1 (stereo not given in full),> 100
21,CCOC(=O)Cc1ccc(Nc2nc3ccccc3nc2C(=O)OCC)cc1,> 100
22,O=S(=O)(c1ccccc1)N1N=C2c3ccccc3CCC[C@H]2C1c1ccccc1 (stereo not given in full),> 100
23,CCOC(=O)/C(=C/c1ccc(N(C)C)cc1)N(CC)CC,> 100
24,CC1CN=C(N(C(=O)Nc2ccccc2)c2ccc(Cl)c(Cl)c2)S1 (stereo not given),> 100
25,CC(=O)O[C@H]1CC[C@@]2(C)C(=CC[C@H]3[C@@H]4C/C(=C\c5ccc(N(C)C)cc5)[C@H](OC(C)=O)[C@@]4(C)CC[C@@H]32)C1,36.7
26,CC(C)(C)[Si](C)(C)Oc1ccc(C2CNC(=O)C23CCC(=O)N3Cc2ccccc2)cc1 (stereo not given),22.4

# Tested on: HOP-62 NSCLC
# Assay: NCI tumour cell line growth inhibition, 48 h
row,Compound,TGI [µM]
1,COC(=O)[C@@]1(C)/C(=N/NS(=O)(=O)c2ccc(C)cc2)CCC[C@@H]1C,> 100
2,COc1ccc(OC)c(/C=C(/C#N)c2ccccc2)c1,> 100
3,COC(=O)C(C(=O)Cc1ccccc1[N+](=O)[O-])C(=O)OC,> 100
4,CCCCC/C=C1\CCC(CN(C)C)C1=O (stereo not given),31.7
5,O=C(Cn1c(-c2ccccc2)cc2ccccc21)N1CCCC1,> 100
6,Cc1ccc(Cl)c2c(=O)c3ccc(N)cc3sc12,52.8
7,CC1CN=C(N(C(=O)Nc2ccc(Cl)c(Cl)c2)c2ccccc2)S1 (stereo not given),> 100
8,CNCCCn1c2ccccc2c2c3c(c(-c4ccsc4)cc21)C(=O)NC3=O,2.24
9,C=C(C)C1CCC2(C)CC1c1c(c(C)cc3c1[nH]c1ccccc13)O2 (stereo not given),> 25
